The nature of test [1]: Inhibition of Escherichia coli DdlB after 20 mins by malachite green staining-based colorimetric assay.
For test [2], the system named is Escherichia coli. Put plainly: Inhibition of Escherichia coli DdlB at 500 uM after 20 mins by malachite green staining-based colorimetric assay.
The subject of test [3] is Escherichia coli. The test is described as follows: Inhibition of Escherichia coli DdlB at 250 uM after 20 mins by malachite green staining-based colorimetric assay.
Test [4] in a line: Competitive inhibition of Escherichia coli DdlB after 20 mins by malachite green staining-based colorimetric assay in presence of ATP.

Here are results for seven compounds from ChEMBL document CHEMBL2163324, “Function of the D-alanine:D-alanine ligase lid loop: a molecular modeling and bioactivity study” (J Med Chem, 2012).

For orientation: IC50 means the concentration at which inhibition is half-maximal. As a reminder, the inhibition is the percentage by which the read-out fell short of the control. By Ki is commonly meant a dissociation constant, usually derived from enzyme kinetics or from competition with a known ligand.

In the case of `N/C(=N/OC(=O)c1ccc2nsnc2c1)c1ncon1`, the IC50 result in test [1] is “ND(Insoluble)”. In test [2], this compound had an inhibition of 78%.
`COc1ccc2c(C)nc(Nc3nc(O)cc(O)n3)nc2c1`: in test [1], the IC50 entry is reported as “ND(Insoluble)”. Further, the inhibition in test [3] stood at 70%.
For `O=C(N/N=C/c1cc(=O)[nH]c(O)n1)c1ccncc1`, in test [1], the IC50 entry is given as “ND(Insoluble)”. The compound also registered an inhibition in test [2] of 62%.
`N/C(=N\OC(=O)Nc1cccc(Cl)c1)c1ccno1`: in test [4], the Ki came to 326 µM. The IC50 in test [1] (read-out: IC50) is 378 µM. Moreover, the inhibition in test [2] is 48%.
As for `O=C1NC(=O)C(=C(O)Nc2ccccc2)C(=O)N1`, in test [1] (read-out: IC50), the half-inhibitory concentration (IC50) is 611 µM. The compound further had an inhibition in test [2] of 63%.
For the compound `N/C(=N\OC(=O)Nc1ccc(Cl)cc1)c1cnccn1`, the IC50 entry in test [1] is “ND(Insoluble)”. The inhibition in test [2] is 77%.
As for `Cc1cc(C(=N)NOC(=O)Nc2ccc(Cl)cc2)no1`, the IC50 in test [1] (read-out: IC50) stood at 656 µM. Further, in test [2], the inhibition came to 61%.
